Assay results as given in US10039836B2, “Polyamine-dihydroxybenzoic acid conjugate hydrogels as iron chelators” (THE UNIVERSITY OF KANSAS, priority 2010, dated 2018).

What was measured:
[1] = test system: HUVEC cells; assay: MTS cytotoxicity assay (CellTiter 96); format: cell-based; conditions: ~24 hours incubation
Experimental: (§1) High throughput cell viability assays were completed using standard procedures. Cytotoxicity of polymers was determined by the CellTiter 96® Aqueous Cell Proliferation Assay (Promega). A549 and HUVEC cells were cultured and incubated with polymers for ˜24 hours. Next, the media was removed and replaced with a mixture of 100 μL fresh culture media and 20 μL MTS reagent solution and cells were incubated for 3 hours at 37° C. in a 5% CO2 incubator. The absorbance of each well was then measured at 490 nm using a microtiter plate reader (SpectraMax, M25, Molecular Devices Corp.) to determine relative cell viability.

[2] = test system: A549 cells; assay: MTS cytotoxicity assay (CellTiter 96); format: cell-based; conditions: ~24 hours incubation
Experimental: as §1

[3] = cited from earlier work

Q: Which results are given for `CC(=O)N(O)CCCCCNC(=O)CCC(=O)N(O)CCCCCNC(=O)CCC(=O)N(O)CCCCCN` [DFO, desferoxamine]?
A: toxic effect on HUVEC cells [1]: considerably toxic even at concentration as low as 10 μg/mL; toxic effect on A549 cells [2]: no toxic effect

Q: With `O=C(N[C@H]1COC(=O)[C@@H](NC(=O)c2cccc(O)c2O)COC(=O)[C@@H](NC(=O)c2cccc(O)c2O)COC1=O)c1cccc(O)c1O` [Enterobactin] as the compound, how does the “relative iron binding constant” value ([3]; Fe(III)) read?
A: Its value is 35.5.

Q: And the “Log K” value ([3]; iron)?
A: Its value is 52.
